Measured values reported in ChEMBL document CHEMBL1909046, “DrugMatrix in vitro pharmacology data”.

Columns and labels:
[1] = molecular target: Delta-type opioid receptor (Homo sapiens, UniProt P41143); assay type: cell membranes, HEK293, Membrane; conditions: hek293
[2] = molecular target: T1, Cholecystokinin receptor type A (Homo sapiens, UniProt P32238); assay type: cell membranes, Membrane; conditions: 1321-n1
T1 sequence (P32238 whole entry): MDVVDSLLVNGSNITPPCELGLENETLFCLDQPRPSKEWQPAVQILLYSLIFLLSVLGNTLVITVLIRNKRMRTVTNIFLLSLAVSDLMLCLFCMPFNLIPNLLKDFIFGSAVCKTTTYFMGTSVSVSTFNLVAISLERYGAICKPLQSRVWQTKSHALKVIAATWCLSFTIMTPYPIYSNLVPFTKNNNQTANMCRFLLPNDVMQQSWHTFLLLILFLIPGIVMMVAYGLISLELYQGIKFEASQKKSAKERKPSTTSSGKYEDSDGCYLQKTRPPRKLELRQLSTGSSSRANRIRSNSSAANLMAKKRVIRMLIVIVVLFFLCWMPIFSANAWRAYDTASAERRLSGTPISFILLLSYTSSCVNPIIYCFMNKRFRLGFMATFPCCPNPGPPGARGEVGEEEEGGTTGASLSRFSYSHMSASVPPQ

[3] = molecular target: T2, Polyunsaturated fatty acid lipoxygenase ALOX15 (Oryctolagus cuniculus, UniProt P12530); assay: biochemical; assay type: tissue-based, Reticulocytes; conditions: reticulocytes;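 also: inhibition of 15-lipoxygenase enzyme activity measured with linoleic acid as the substrate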
T2 sequence (P12530 whole entry): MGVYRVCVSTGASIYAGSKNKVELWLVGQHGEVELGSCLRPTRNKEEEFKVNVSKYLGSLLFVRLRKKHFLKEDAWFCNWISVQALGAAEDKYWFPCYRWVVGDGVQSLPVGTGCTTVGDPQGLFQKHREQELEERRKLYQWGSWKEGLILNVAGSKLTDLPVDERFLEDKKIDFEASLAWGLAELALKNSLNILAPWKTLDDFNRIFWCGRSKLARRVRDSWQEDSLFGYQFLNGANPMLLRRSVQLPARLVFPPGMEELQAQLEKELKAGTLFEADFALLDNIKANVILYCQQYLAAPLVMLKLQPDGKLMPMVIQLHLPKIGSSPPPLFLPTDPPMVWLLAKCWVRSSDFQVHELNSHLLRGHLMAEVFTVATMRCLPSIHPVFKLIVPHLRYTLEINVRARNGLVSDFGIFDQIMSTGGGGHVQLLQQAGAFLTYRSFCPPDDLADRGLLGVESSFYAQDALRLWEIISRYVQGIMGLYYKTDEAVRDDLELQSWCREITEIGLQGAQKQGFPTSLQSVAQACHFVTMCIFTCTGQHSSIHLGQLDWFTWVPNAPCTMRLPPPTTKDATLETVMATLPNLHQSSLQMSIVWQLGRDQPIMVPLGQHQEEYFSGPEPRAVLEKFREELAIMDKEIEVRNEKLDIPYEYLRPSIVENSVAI

Estrogen receptor beta = Estrogen receptor beta (Homo sapiens, UniProt Q92731); conditions: sf9
Sequence of Estrogen receptor beta (Q92731 whole entry): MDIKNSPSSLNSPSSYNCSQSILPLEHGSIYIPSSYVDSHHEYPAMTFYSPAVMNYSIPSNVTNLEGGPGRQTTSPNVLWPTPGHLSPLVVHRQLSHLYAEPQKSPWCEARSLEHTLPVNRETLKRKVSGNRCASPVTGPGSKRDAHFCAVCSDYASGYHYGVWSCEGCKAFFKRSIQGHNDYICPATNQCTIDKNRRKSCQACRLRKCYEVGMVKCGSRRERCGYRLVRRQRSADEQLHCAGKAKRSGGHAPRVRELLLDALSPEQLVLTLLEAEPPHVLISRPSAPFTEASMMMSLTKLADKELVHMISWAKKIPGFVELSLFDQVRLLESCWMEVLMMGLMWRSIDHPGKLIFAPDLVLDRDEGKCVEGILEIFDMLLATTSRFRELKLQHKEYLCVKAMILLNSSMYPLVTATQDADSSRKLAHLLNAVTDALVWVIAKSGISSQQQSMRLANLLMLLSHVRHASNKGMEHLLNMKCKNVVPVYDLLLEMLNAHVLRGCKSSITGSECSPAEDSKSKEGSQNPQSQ

Cytochrome P450 1A2 = molecular target: T3, Cytochrome P450 1A2 (Homo sapiens, UniProt P05177); conditions: bti-tn-5b1-4
T3 sequence (P05177 whole entry): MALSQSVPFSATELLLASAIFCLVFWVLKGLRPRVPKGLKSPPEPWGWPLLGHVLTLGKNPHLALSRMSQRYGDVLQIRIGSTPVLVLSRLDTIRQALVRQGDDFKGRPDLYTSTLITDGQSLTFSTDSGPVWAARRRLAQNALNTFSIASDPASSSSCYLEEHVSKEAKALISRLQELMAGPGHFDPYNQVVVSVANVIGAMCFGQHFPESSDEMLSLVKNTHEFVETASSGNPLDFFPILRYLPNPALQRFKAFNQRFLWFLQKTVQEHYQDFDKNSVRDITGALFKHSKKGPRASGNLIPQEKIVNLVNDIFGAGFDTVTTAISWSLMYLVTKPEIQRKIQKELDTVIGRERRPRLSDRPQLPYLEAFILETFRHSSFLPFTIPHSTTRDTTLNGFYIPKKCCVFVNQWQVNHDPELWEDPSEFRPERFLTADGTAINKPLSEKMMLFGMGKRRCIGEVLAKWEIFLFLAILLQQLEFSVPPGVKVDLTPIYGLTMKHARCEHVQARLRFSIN

[4] = molecular target: Tyrosine-protein kinase Fyn (Homo sapiens, UniProt P06241); assay: biochemical; assay type: cell-based, Insect cells;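 also: enzymatic inhibition of Fyn kinase activity measured with Poly(Glu:Tyr) as the phosphorylation substrate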
Sequence of Tyrosine-protein kinase Fyn (P06241 whole entry): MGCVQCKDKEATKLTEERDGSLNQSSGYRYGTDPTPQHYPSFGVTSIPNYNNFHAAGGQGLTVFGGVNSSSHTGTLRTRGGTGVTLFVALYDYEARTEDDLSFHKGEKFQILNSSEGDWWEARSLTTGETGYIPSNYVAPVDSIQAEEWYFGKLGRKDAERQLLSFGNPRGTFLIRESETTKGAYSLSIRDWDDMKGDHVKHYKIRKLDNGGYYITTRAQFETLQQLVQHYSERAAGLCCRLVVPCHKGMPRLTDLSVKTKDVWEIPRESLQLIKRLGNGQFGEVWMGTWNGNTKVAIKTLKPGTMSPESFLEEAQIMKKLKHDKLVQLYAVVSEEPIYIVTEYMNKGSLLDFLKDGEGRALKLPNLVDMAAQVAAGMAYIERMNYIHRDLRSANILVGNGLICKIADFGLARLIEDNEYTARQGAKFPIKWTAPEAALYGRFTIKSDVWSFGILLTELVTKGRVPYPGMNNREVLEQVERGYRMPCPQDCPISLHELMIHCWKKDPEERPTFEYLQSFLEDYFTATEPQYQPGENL

[5] = molecular target: T4, Neuropeptide Y receptor type 1 (Homo sapiens, UniProt P25929); assay type: cell membranes, Membrane; conditions: sk-n-mc
T4 sequence (P25929 whole entry): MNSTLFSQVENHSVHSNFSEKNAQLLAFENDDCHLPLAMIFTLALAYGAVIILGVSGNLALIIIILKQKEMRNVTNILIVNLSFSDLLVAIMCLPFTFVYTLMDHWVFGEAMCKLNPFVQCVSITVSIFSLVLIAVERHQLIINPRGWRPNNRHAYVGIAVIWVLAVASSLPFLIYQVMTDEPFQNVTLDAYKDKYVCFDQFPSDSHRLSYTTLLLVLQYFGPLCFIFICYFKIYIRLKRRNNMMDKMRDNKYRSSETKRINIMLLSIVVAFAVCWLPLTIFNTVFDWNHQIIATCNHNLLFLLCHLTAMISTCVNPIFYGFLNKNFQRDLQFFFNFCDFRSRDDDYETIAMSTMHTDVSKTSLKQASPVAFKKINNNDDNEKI

[6] = molecular target: C-C chemokine receptor type 2 (Homo sapiens, UniProt P41597); assay type: cell membranes, CHO-K1, Membrane; conditions: cho-k1
Sequence of C-C chemokine receptor type 2 (P41597 whole entry): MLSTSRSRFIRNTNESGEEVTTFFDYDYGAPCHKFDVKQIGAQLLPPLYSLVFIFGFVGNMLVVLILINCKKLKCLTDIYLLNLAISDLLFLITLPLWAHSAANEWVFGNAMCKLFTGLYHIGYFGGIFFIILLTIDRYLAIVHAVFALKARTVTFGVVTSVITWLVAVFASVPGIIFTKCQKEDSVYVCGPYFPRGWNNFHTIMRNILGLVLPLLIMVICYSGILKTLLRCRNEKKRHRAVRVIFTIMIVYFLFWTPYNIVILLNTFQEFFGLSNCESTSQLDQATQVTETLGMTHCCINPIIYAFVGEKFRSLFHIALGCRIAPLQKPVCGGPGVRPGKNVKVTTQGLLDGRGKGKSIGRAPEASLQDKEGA
Also: in other assays of this panel Not Active means under 50% inhibition at 10 µM.

Sequence of Delta-type opioid receptor (P41143 whole entry): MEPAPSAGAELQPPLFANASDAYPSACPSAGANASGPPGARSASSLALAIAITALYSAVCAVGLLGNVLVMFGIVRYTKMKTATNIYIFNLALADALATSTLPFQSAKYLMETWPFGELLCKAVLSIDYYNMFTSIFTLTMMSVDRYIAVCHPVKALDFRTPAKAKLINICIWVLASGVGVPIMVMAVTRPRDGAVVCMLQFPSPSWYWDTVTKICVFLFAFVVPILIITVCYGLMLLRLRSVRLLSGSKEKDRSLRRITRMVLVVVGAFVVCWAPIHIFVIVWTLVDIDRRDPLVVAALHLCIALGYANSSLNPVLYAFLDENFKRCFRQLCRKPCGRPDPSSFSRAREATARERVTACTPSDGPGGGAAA

SMILES | IC50 [1] | IC50 [2] | IC50 [3] | IC50 (Estrogen receptor beta) | IC50 (Cytochrome P450 1A2) | Ki (Cytochrome P450 1A2) | IC50 ([4]; insect cells) | IC50 [5] | IC50 [6] | Ki [1] | Ki [2] | Ki [3] | Ki (Estrogen receptor beta) | Ki ([4]; insect cells) | Ki [5] | Ki [6] | IC50 ([4]; read-out: IC50)
C=C(C)C1(O)OC(=O)C=C1OC (stereo unspecified) [PENICILLIC ACID] | Not Active | Not Active | Not Active | Not Active | Not Active | Not Active | Not Active | Not Active | Not Active | – | – | – | – | – | – | – | –
CN(Cc1ccc(C(C)(C)C)cc1)Cc1cccc2ccccc12 [BUTENAFINE] | Not Active | Not Active | Not Active | Not Active | Not Active | Not Active | Not Active | Not Active | Not Active | – | – | – | – | – | – | – | –
NC(=O)N1c2ccccc2CCc2ccccc21 | Not Active | Not Active | Not Active | Not Active | Not Active | Not Active | Not Active | Not Active | Not Active | – | – | – | – | – | – | – | –
Cc1onc(-c2ccccc2Cl)c1C(=O)N[C@@H]1C(=O)N2[C@@H]1SC(C)(C)[C@@H]2C(=O)O [CLOXACILLIN] | Not Active | Not Active | Not Active | Not Active | Not Active | Not Active | Not Active | Not Active | Not Active | – | – | – | – | – | – | – | –
COc1ccc(C[C@H]2NC[C@H](O)[C@H]2OC(C)=O)cc1 [ANISOMYCIN] | Not Active | Not Active | Not Active | Not Active | Not Active | Not Active | Not Active | Not Active | Not Active | Not Active | Not Active | Not Active | Not Active | Not Active | Not Active | Not Active | –
CCn1cc(C(=O)O)c(=O)c2cc(F)c(N3CCNCC3)cc21 [NORFLOXACIN] | Not Active | Not Active | Not Active | Not Active | Not Active | Not Active | Not Active | Not Active | Not Active | – | – | – | – | – | – | – | –
Cc1ccc(/N=C/N(C)/C=N/c2ccc(C)cc2C)c(C)c1 [AMITRAZ] | Not Active | Not Active | Not Active | Not Active | Not Active | Not Active | Not Active | Not Active | Not Active | – | – | – | – | – | – | – | –
Cc1ccc(N(CC2=NCCN2)c2cccc(O)c2)cc1 [PHENTOLAMINE] | Not Active | Not Active | Not Active | Not Active | Not Active | Not Active | Not Active | Not Active | Not Active | – | – | – | – | – | – | – | –
CNNCc1ccc(C(=O)NC(C)C)cc1 [PROCARBAZINE] | Not Active | Not Active | Not Active | Not Active | Not Active | Not Active | Not Active | Not Active | Not Active | – | – | – | – | – | – | – | –
OC(Cn1cncn1)(Cn1cncn1)c1ccc(F)cc1F [FLUCONAZOLE] | Not Active | Not Active | Not Active | Not Active | Not Active | Not Active | Not Active | Not Active | Not Active | – | – | – | – | – | – | – | –
O=c1oc2ccccc2c(O)c1Cc1c(O)c2ccccc2oc1=O [DICUMAROL] | Not Active | Not Active | Not Active | Not Active | Not Active | Not Active | Not Active | Not Active | Not Active | – | – | – | – | – | – | – | –
Cc1cc(C2CCCCC2)n(O)c(=O)c1 [CICLOPIROX] | Not Active | Not Active | Not Active | Not Active | Not Active | Not Active | Not Active | Not Active | Not Active | – | – | – | – | – | – | – | –
CCOc1ccc(NC(C)=O)cc1 [PHENACETIN] | Not Active | Not Active | Not Active | Not Active | Not Active | Not Active | Not Active | Not Active | Not Active | – | – | – | – | – | – | – | –
NC1=NC(=O)C(c2ccccc2)O1 (stereo unspecified) [PEMOLINE] | Not Active | Not Active | Not Active | Not Active | Not Active | Not Active | Not Active | Not Active | Not Active | – | – | – | – | – | – | – | –
CC(C)C(Br)C(=O)NC(N)=O (stereo unspecified) [BROMISOVALUM] | Not Active | Not Active | Not Active | Not Active | Not Active | Not Active | Not Active | Not Active | Not Active | – | – | – | – | – | – | – | –
C[C@H](CS)C(=O)N1CCC[C@H]1C(=O)O [CAPTOPRIL] | Not Active | Not Active | Not Active | Not Active | Not Active | Not Active | Not Active | Not Active | Not Active | – | – | – | – | – | – | – | –
Cc1c(O)c(=O)ccn1C [DEFERIPRONE] | Not Active | Not Active | Not Active | Not Active | Not Active | Not Active | Not Active | Not Active | Not Active | – | – | – | – | – | – | – | –
CC(C)[C@@]1(NC(=O)[C@@H]2C[C@@H]3c4cccc5[nH]cc(c45)C[C@H]3N(C)C2)O[C@@]2(O)[C@@H]3CCCN3C(=O)[C@H](Cc3ccccc3)N2C1=O.CS(=O)(=O)O [DIHYDROERGOCRISTINE MESYLATE] | Not Active | Not Active | Not Active | Not Active | Not Active | Not Active | Not Active | Not Active | Not Active | – | – | – | – | – | – | – | –
C1CCC(C(CC2CCCCN2)C2CCCCC2)CC1 (stereo unspecified) [PERHEXILINE] | Not Active | Not Active | Not Active | Not Active | Not Active | Not Active | – | Not Active | Not Active | – | – | – | – | – | – | – | 4.06 µM
Cc1ccccc1N1C(=O)c2cc(S(N)(=O)=O)c(Cl)cc2NC1C (stereo unspecified) [METOLAZONE] | Not Active | Not Active | Not Active | Not Active | Not Active | Not Active | Not Active | Not Active | Not Active | – | – | – | – | – | – | – | –
O=C1CC[C@@H](N2C(=O)c3ccccc3C2=O)C(=O)N1 | Not Active | Not Active | Not Active | Not Active | Not Active | Not Active | Not Active | Not Active | Not Active | – | – | – | – | – | – | – | –
